Measured values reported in patent US10221439B2, “Sensors, methods and kits for detecting nicotinamide adenine dinucleotides” (Max-Planck-Gesellschaft zur Förderung der Wissenschaften …, priority 2015, dated 2019).
“Also recorded” adds a separate entry of the source.

Experiments:
Wild-type human SPR = Wild-type human SPR (Homo sapiens, UniProt P35270); conditions: cited from earlier work
U2OS cells = assay: Live cells perfusion experiment with sensor expressed in the cytosol; assay type: cell-based; conditions: for sensor response (ratio TMR/SiR, NADPH/NADP^+): 100 μM perfused on U2OS cells
Description: Semi-stable U2OS (SPR-Halo-p30-SNAP cloned in a pEBTet vector; see Bach et al. FEBS J. 2007 Feb.; 274(3):783-90 for the description of pEBTet) freshly trypsinated are diluted 5-fold with DMEM GlutaMax+10% FBS and 1 μg/mL puromycin. They are plated (2 mL) in previously sterilized and poly-L-ornithine coated (1 h incubation) glass coverslips (20×20 mm, VWR) in 12-well plate (TPP). On day 2, the expression is induced by 100 ng/mL doxycycline for ˜24 h. […] On day 4, the cells are washed 3 times with DMEM GlutaMax+10% FBS without phenol red (10 min incubation, 37° C., 5% CO2 between each step). After 30 min of incubation, the cells are ready for imaging. Glass coverslips with labelled U2OS cells were transferred to a Cytoo chamber (44×34×10 mm). Gravity fed perfusion of the chamber was performed at a flow rate of 1 mL/min. Time-course experiments of sensor imaging were performed using a Leica LAS AF 7000 wide-field microscope equipped with a 63× plan Apochromat 1.40 NA oil immersion objective lens. A xenon arc lamp was used for imaging of the U2OS cells. For each frame, the two channels (donor and FRET) were measured consecutively with an interval of 10 s between the two emission channels. The filter set Cy3/Cy5 was used for FRET ratio imaging with excitation at 530/35 and emission at 580/40 (Cy3) as well as excitation at 635/30 and emission at 700/72 (Cy5). If not indicated otherwise, the image size was […]. The reagent perfused during the experiment (H2O2, SPY) were dissolved in HBSS (Lonza). HBSS solution was continuously perfused during the other time point of the experiment.

[1] = cited from earlier work

Chain of Wild-type human SPR (P35270 whole entry, the tested form may be a part): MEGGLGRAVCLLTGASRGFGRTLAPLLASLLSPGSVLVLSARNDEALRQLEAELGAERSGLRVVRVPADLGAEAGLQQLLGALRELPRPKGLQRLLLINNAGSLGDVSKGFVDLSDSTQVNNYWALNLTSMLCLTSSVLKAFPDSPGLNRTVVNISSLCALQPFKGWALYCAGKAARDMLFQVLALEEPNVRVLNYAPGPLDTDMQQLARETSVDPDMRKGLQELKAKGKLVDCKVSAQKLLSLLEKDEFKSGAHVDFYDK

## nicotinamide adenine dinucleotide phosphate [NADPH]
Wild-type human SPR
  Kd: 1 µM

## Nc1ccc(S(=O)(=O)Nc2ccccn2)cc1 [sulfapyridine]
U2OS cells; 2 mM perfused on U2OS cells
  sensor response (ratio TMR/SiR): increased ratio TMR/SiR; also recorded: fully open the sensor
[1]
  pKa of the sulfonamide proton: 8.4

## nicotinamide adenine dinucleotide phosphate [NADP^+]
Wild-type human SPR
  Kd: 10 µM

## OO [H2O2, hydrogen peroxide]
U2OS cells
  sensor response (ratio TMR/SiR, NADPH/NADP^+): decreased NADPH/NADP^+ ratio
U2OS cells; listed as hydrogen peroxide
  sensor response (ratio TMR/SiR, NADPH/NADP^+): sharp decrease of the ratio
